Assay results reported in patent US6358694B1, “Methods of identifying modulators of a prostaglandin receptor” (Merck Frosst Canada & Co., priority 1993, dated 2002).

Experiments:
cloned human FP receptor = target: T1, cloned human FP receptor (Homo sapiens, UniProt P43088); experiment: [3H]PGF2α competition binding assay with membranes of pcDNAIamp-hFP transfected COS-M6 cells; settings: for rank order of potency for competition of [3H]PGF2α specific binding: transfected COS-M6 membranes, 0.03 nM-10 μM competitor
T1 construct: A long open reading frame (1077 bp) was determined which would result in a 359 amino acid polypeptide; expressed in transfected cells; host or cells: COS-M6 cells, transient DEAE-dextran transfection with pcDNAIamp-hFP; 100,000 x g membrane fraction
T1 sequence (P43088 whole entry): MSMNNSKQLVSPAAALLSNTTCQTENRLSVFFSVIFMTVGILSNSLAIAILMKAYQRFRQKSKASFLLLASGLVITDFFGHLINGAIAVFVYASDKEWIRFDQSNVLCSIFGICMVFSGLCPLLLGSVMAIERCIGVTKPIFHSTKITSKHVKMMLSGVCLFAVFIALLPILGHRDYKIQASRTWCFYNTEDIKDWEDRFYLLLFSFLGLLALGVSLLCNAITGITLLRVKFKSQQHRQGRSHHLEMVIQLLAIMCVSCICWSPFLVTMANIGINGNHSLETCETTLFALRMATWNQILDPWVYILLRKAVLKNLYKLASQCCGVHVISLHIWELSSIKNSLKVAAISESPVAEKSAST
Procedure: The recently cloned human prostaglandin F2a (FP) receptor was subcloned into the pcDNA lamp plasmid (Invitrogen) and transfected into COS-M6 cells using the DEAE-dextran method. The cells were maintained in culture for 72 h, then harvested and membranes prepared by differential centrifugation (1000×g for 10 min, then 100,000×g for 30 min) following lysis of the cells by nitrogen cavitation. […] Incubations were conducted for 1 h at room temperature prior to separation of the bound and free radioligand by rapid filtration through Whatman GF/B filters presoaked at 4° C. in washing buffer ([…] (pH 6.0) containing 0.01% bovine serum albumin).

FP receptor [1] = target: T2, FP receptor (Homo sapiens, UniProt P43088); experiment: electrophysiological assay (Ca2+-dependent Cl- current) in pcDNAIamp-FP-injected Xenopus oocytes; assay type: cell-based; settings: perfusion of 10 nM, oocyte voltage clamped at -60 mV
T2 construct: A long open reading frame (1077 bp) was determined which would result in a 359 amino acid polypeptide; expressed in transfected cells; host or cells: Xenopus laevis oocytes (stage 5-6), nuclear injection of 1-5 ng pcDNAIamp-FP plasmid
T2 sequence (P43088 whole entry, the tested form may be a part): as the sequence (P43088 whole entry) above
Procedure: (§1) Ooctyes were taken from adult females of Xenopus laevis using standard surgical procedure (Colman, A., 1984 In: Transcription and Translation—A Practical Approach, IRL Press). To remove follicle cells, oocytes were treated for 2-3 h with freshly made collagenase (2 mg/ml, type 2, Worthington Biochemical Corp., Freehold, N.J.) in Ca^2+-free ND96 solution (ND96 in mM: NaCl 96, KCl 2, MgCl2 1, HEPES 5, Na-pyruvate 2.5, theophylline 0.5, gentamicin […], +1.8 CaCl2, pH 7.6). Defolliculated stage 5-6 oocytes were selected and maintained in ND96 solution. Ooctye nuclei were injected with 1-5 ng of pcDNAIamp-PP and then incubated at 18° C. for 48 h before challenge with agonist. Functional activity was determined by measurement of either agonist-induced Ca^2+-dependent Cl^− current or light emission in oocytes injected with the Ca^2+-specific photoprotein aequorin (J. Blinks, Friday Harbor Photoproteins, Wash.), (Giladi and Spindel 1991 Biotechniques, 10, pp 744-747). […] Ligand-containing solution was perfused and the current response was recorded. For the luminometric assay, aequorin-loaded oocytes (100 ng/oocyte) were placed individually in cuvettes containing 0.4 ml ND96 and the light emission provoked by ligand addition was recorded using a Bio-Orbit 1251 luminometer (Fisher Sci. Ltd.).

FP receptor [2] = target: T2, FP receptor; experiment: aequorin luminescence assay in pcDNAIamp-FP-injected Xenopus oocytes; assay type: cell-based; settings: aequorin-loaded oocytes, compared to PGE2
Procedure: as §1

CCCCC[C@H](O)/C=C/[C@H]1C(=O)C[C@H](O)[C@@H]1C/C=C\CCCC(=O)O [PGD2]
rank order of potency for competition of [3H]PGF2α specific binding (cloned human FP receptor): PGF2α=fluprostenol>PGD2>>PGE2≈U46619>iloprost

CCCCC[C@H](O)/C=C/[C@@H]1[C@@H](C/C=C\CCCC(=O)O)[C@H]2CO[C@@H]1C2 [U46619]
rank order of potency for competition of [3H]PGF2α specific binding (cloned human FP receptor): PGF2α=fluprostenol>PGD2>>PGE2≈U46619>iloprost

O=C(O)CCC/C=C\C[C@@H]1[C@@H](/C=C/[C@@H](O)COc2cccc(C(F)(F)F)c2)[C@H](O)C[C@@H]1O (racemic) [fluprostenol]
agonist-induced Ca2+-dependent Cl- current response (FP receptor [1]): prominent current responses
agonist potency from dose-response of aequorin light emission (FP receptor [2]): more potent agonists
IC50 (cloned human FP receptor): 3.5 nM
rank order of potency for competition of [3H]PGF2α specific binding (cloned human FP receptor): PGF2α=fluprostenol>PGD2>>PGE2≈U46619>iloprost

CCCCC[C@H](O)/C=C/[C@H]1[C@H](O)CC(=O)[C@@H]1C/C=C\CCCC(=O)O [PGE2]
rank order of potency for competition of [3H]PGF2α specific binding (cloned human FP receptor): PGF2α=fluprostenol>PGD2>>PGE2≈U46619>iloprost

CC#CCC(C)[C@H](O)/C=C/[C@@H]1[C@H]2C/C(=C/CCCC(=O)O)C[C@H]2C[C@H]1O (some centres unmarked) [iloprost]
rank order of potency for competition of [3H]PGF2α specific binding (cloned human FP receptor): PGF2α=fluprostenol>PGD2>>PGE2≈U46619>iloprost
